As a reminder, the MIC is the lowest concentration that inhibits growth of the organism.

In brackets after ≈: the same amount, converted by molar mass.

The record followed here is patent US20240116857A1 (St. Louis University, priority 2022, published 2024).

The test system of the first test is E. coli BW25113. Briefly: MIC, 2-fold broth dilution, E. coli BW25113. In kind it is cell-based, Escherichia coli. The following applies: Escherichia coli, BW25113, read-out: MIC, μM >50. On the technique in general: Dilution methods test growth across graded concentrations, often in twofold steps.
Consider `CN(C)c1ccc(NC(=O)c2ccc(-c3ccc(C(=O)Nc4ccc(N(C)C)c([N+](=O)[O-])c4)cc3)cc2)cc1[N+](=O)[O-]` [Example 141], for which the MIC was above 50 µM.

Still in this test, the particulars now being: Escherichia coli; E. coli BW25113; asterisk in column 1-10; read-out: MIC, μM 1-10.
In the case of `CN(C)c1ccc(NC(=O)c2ccc(-c3ccc(C(=O)Nc4ccc(N5CCCCC5)cc4)cc3)cc2)cc1` [Example 127], the MIC is 1 to 10 µM (≈ 0.519 to 5.19 µg/mL).

Turning to `COc1cc(NC(=O)c2ccc(-c3ccc(C(=O)Nc4ccc(N5CCCCC5)cc4)cc3)cc2)ccc1N(C)C` [Example 128], the MIC is 1 to 10 µM (≈ 0.549 to 5.49 µg/mL).

Take `C[N+](C)(C)c1ccc(NC(=O)c2ccc(-c3ccc(C(=O)Nc4ccc([N+]5(C)CCCCC5)cc4)cc3)cc2)cc1F` [Example 129]: the MIC fell in the range of 1 to 10 µM.

For the molecule `CCCCCCCCc1cn(CCOCCOCCOCCNC(=O)CCCC[C@H]2SC[C@H]3NC(=O)N[C@H]32)nn1` [Example 142], the MIC lay in the range of 1 to 10 µM (≈ 0.583 to 5.83 µg/mL).

For the molecule `CN(C)c1ccc(NC(=O)c2ccc(-c3ccc(C(=O)Nc4ccc(N5CCCCC5)c(F)c4)cc3)cc2)cc1F` [Example 143], the MIC lay in the range of 1 to 10 µM (≈ 0.555 to 5.55 µg/mL).

Take `C[N+](C)(C)c1ccc(NC(=O)c2ccc(-c3ccc(C(=O)Nc4ccc([N+](C)(C)C)c(N)c4)cc3C#N)cc2)cc1` [Example 153]: the MIC fell in the range of 1 to 10 µM.

Staying with this test, now noted: Escherichia coli; E. coli BW25113; asterisk in column 10-50; read-out: MIC, μM 10-50.
For the molecule `C#CCCC[N+](C)(C)c1ccc(NC(=O)c2ccc(-c3ccc(C(=O)Nc4ccc([N+](C)(C)C)c(F)c4)cc3)cc2)cc1F` [Example 118], the MIC was 10 to 50 µM.

The test is the same for the next values; noted with them: Escherichia coli; E. coli BW25113; asterisk in column >50; read-out: MIC, μM >50.
Take `C#CCCCCCCCCOc1cc(NC(=O)c2ccc(-c3ccc(C(=O)Nc4ccc(N(C)C)c(F)c4)cc3)cc2)ccc1N(C)C` [Example 117]: the MIC is above 50 µM.

Consider `C#CCCCC[N+](C)(C)c1ccc(NC(=O)c2ccc(-c3ccc(C(=O)Nc4ccc([N+](C)(C)C)c(F)c4)cc3)cc2)cc1F` [Example 121], for which the MIC was above 50 µM.

Consider `C#CCCCOc1cc(NC(=O)c2ccc(-c3ccc(C(=O)Nc4ccc([N+](C)(C)C)c(F)c4)cc3)cc2)ccc1[N+](C)(C)C` [Example 122], for which the MIC is above 50 µM.

For `C#CCCCOc1cc(NC(=O)c2ccc(-c3ccc(C(=O)Nc4ccc(N(C)C)c(F)c4)cc3)cc2)ccc1N(C)C` [Example 123], the MIC is above 50 µM.

On to `C#CCCCN(C)c1ccc(NC(=O)c2ccc(-c3ccc(C(=O)Nc4ccc(N(C)C)c(F)c4)cc3)cc2)cc1F` [Example 124], for which the MIC is above 50 µM.

For `CN(C)c1ccc(NC(=O)c2ccc(-c3ccc(C(=O)Nc4ccc([N+](C)(C)C)c(F)c4)cc3)cc2)cc1F` [Example 125], the MIC was above 50 µM.

As for `C#CCCCCN(C)c1ccc(NC(=O)c2ccc(-c3ccc(C(=O)Nc4ccc(N(C)C)c(F)c4)cc3)cc2)cc1F` [Example 126], the MIC is above 50 µM.

As to `C[N+](C)(C)c1ccc(NC(=O)c2ccc(-c3ccc(C(=O)Nc4ccc([N+](C)(C)C)c(F)c4)cc3)cc2)cc1` [Example 130], the MIC was above 50 µM.

With `C[N+](C)(C)c1ccc(NC(=O)c2ccc(-c3ccc(C(=O)Nc4ccc([N+](C)(C)C)c(Cl)c4)cc3)cc2)cc1F` [Example 131], the MIC was above 50 µM.

In the case of `C[N+](C)(C)c1ccc(NC(=O)c2ccc(-c3ccc(C(=O)Nc4ccc([N+](C)(C)CCCCc5cn(CCOCCOCCOCCNC(=O)CCCC[C@@H]6SC[C@@H]7NC(=O)N[C@@H]76)nn5)c(F)c4)cc3)cc2)cc1F` [Example 132], the MIC was above 50 µM.

With `C[N+](C)(C)c1ccc(NC(=O)c2ccc(-c3ccc(C(=O)Nc4ccc([N+](C)(C)CCCc5cn(CCOCCOCCOCCNC(=O)CCCC[C@@H]6SC[C@@H]7NC(=O)N[C@@H]76)nn5)c(F)c4)cc3)cc2)cc1F` [Example 133], the MIC was above 50 µM.

For `C[N+](C)(C)c1ccc(NC(=O)c2ccc(-c3ccc(C(=O)Nc4ccc([N+](C)(C)Cc5cn(CCOCCOCCOCCNC(=O)CCCC[C@@H]6SC[C@@H]7NC(=O)N[C@@H]76)nn5)c(F)c4)cc3)cc2)cc1F` [Example 134], the MIC was above 50 µM.

For `C[N+](C)(C)c1ccc(NC(=O)c2ccc(-c3ccc(C(=O)Nc4ccc([N+](C)(C)C)c(OCCCCCCCCc5cn(CCOCCOCCONC(=O)CCCC[C@@H]6SC[C@@H]7NC(=O)N[C@@H]76)nn5)c4)cc3)cc2)cc1F` [Example 135], the MIC is above 50 µM.

Take `C[N+](C)(C)c1ccc(NC(=O)c2ccc(-c3ccc(C(=O)Nc4ccc([N+](C)(C)C)c(OCCCCc5cn(CCOCCOCCOCCNC(=O)CCCC[C@@H]6SC[C@@H]7NC(=O)N[C@@H]76)nn5)c4)cc3)cc2)cc1F` [Example 136]: the MIC is above 50 µM.

Take `C[N+](C)(C)c1ccc(NC(=O)c2ccc(-c3ccc(C(=O)Nc4ccc([N+](C)(C)C)c(OCCCc5cn(CCOCCOCCOCCNC(=O)CCCC[C@@H]6SC[C@@H]7NC(=O)N[C@@H]76)nn5)c4)cc3)cc2)cc1F` [Example 137]: the minimum inhibitory concentration (MIC) is above 50 µM.

Regarding `C[N+](C)(C)c1ccc(NC(=O)c2ccc(-c3ccc(C(=O)Nc4ccc([N+](C)(C)C)c(OCCc5cn(CCOCCOCCOCCNC(=O)CCCC[C@@H]6SC[C@@H]7NC(=O)N[C@@H]76)nn5)c4)cc3)cc2)cc1F` [Example 138], the MIC is above 50 µM.

For `C#CCCN(C)c1ccc(NC(=O)c2ccc(-c3ccc(C(=O)Nc4ccc(N(C)C)c(F)c4)cc3)cc2)cc1F` [Example 139], the MIC was above 50 µM.

With `CN(C)c1ccc(NC(=O)c2ccc(-c3ccc(C(=O)Nc4ccc(N(C)C)c([N+](=O)[O-])c4)cc3)c(S(C)(=O)=O)c2)cc1` [Example 140], the MIC is above 50 µM.

Consider `C[N+](C)(C)c1ccc(NC(=O)c2ccc(-c3ccc(C(=O)Nc4ccc([N+]5(C)CCCCC5)cc4)cc3)cc2)cc1` [Example 144], for which the MIC was above 50 µM.

With `COc1cc(NC(=O)c2ccc(-c3ccc(C(=O)Nc4ccc([N+]5(C)CCCCC5)cc4)cc3)cc2)ccc1[N+](C)(C)C` [Example 145], the MIC was above 50 µM.

For `C[N+](C)(C)c1ccc(NC(=O)c2ccc(-c3ccc(C(=O)Nc4ccc([N+](C)(C)C)c([N+](=O)[O-])c4)cc3)c(S(C)(=O)=O)c2)cc1` [Example 146], the MIC is above 50 µM.

As for `C[N+](C)(C)c1ccc(NC(=O)c2ccc(-c3ccc(C(=O)Nc4ccc([N+](C)(C)C)c(N)c4)cc3)c(S(C)(=O)=O)c2)cc1` [Example 147], the MIC was above 50 µM.

Regarding `CN(C)c1ccc(NC(=O)c2ccc(-c3ccc(C(=O)Nc4ccc(N(C)C)c([N+](=O)[O-])c4)cc3C#N)cc2)cc1` [Example 148], the MIC is above 50 µM.

Turning to `CN(C)c1ccc(NC(=O)c2ccc(-c3ccc(C(=O)Nc4ccc(N(C)C)c(C#N)c4)cc3C#N)cc2)cc1` [Example 149], the MIC was above 50 µM.

For the molecule `C[N+](C)(C)c1ccc(NC(=O)c2ccc(-c3ccc(C(=O)Nc4ccc([N+](C)(C)C)c(C#N)c4)cc3C#N)cc2)cc1` [Example 150], the MIC was above 50 µM.

Regarding `C[N+](C)(C)c1ccc(NC(=O)c2ccc(-c3ccc(C(=O)Nc4ccc([N+](C)(C)C)c([N+](=O)[O-])c4)cc3C#N)cc2)cc1` [Example 154], the MIC is above 50 µM.
